Measured values as given in patent US9879303B2, “Chromogenic glucuronidase substrates and uses” (Glycosynth Limited, priority 2013, dated 2018).
Where a name gives a salt, the structure may show the parent alone.

Key:
Type in all cases: cell-based
E. faecium NCTC 7171 [1] = experiment: screen of strains on agar plates (CPS ID 3 or Columbia agar); parameters: key: Red, Green, Black or Purple mean strong colour; Red, Green, Black or Purple mean strong colour; Red, Green, Black or Purple mean strong colour; Red, Green, Black or Purple mean strong colour; +/− means less colour than strong; Tr means a trace of colour, less than +/−; — means no colour; conditions: 37° C. 18 hours
E. faecalis NCTC 775 [2] = experiment: as above; parameters: key: Red, Green, Black or Purple mean strong colour; Red, Green, Black or Purple mean strong colour; Red, Green, Black or Purple mean strong colour; Red, Green, Black or Purple mean strong colour; +/− means less colour than strong; Tr means a trace of colour, less than +/−; — means no colour; conditions: 37° C. 18 hours
[3] = tested on: E. coli expressing both β-D-glucuronidase and β-D-galactosidase; experiment: broth media in the presence of ONPG; conditions: ONPG 1.5 g/L, broth with FAC
Protocol: The two indoxyl glucuronides used produce insoluble endpoints following hydrolysis, as does the CPS ID 3 medium. It was therefore necessary to test these two substrates on agar plates. In contrast, catechol-β-D-glucuronide (1) and DHN-β-D-glucuronide (2b) give much more soluble endpoints best suited to liquid media and were therefore tested in a broth medium. Each broth was prepared using proteose peptone (Oxoid, Basingstoke, UK) (2 g), NaCl (1 g) and FAC (100 mg) in DI water (180 mL). This mixture was autoclaved and cooled to room temperature before being dispensed into bijoux (100×1.8 mL). Catechol β-D-glucuronide CHA salt (1) or DHN-β-D-glucuronide CHA salt (2b) (60 mg) were each dissolved in water (20 mL) and filtered to sterilize before being aseptically dispensed into successive bijoux (0.2 mL) containing the broth solution. […]
Because many E. coli produce both β-D-glucuronidase and β-D-galactosidase, catechol-β-D-glucuronide (1) and DHN-β-D-glucuronide (2b) were tested as in the broth media described above but in the presence of o-nitrophenyl-β-D-galactoside (ONPG) (at a concentration of 1.5 g/L). […] With either substrate, the colour of these solutions of mixed chromogens could be very readily distinguished with the unaided eye from the yellow colour of those strains, such as E. cloacae, that produced β-D-galactosidase only. […]

E. faecium NCTC 7171 [4] = experiment: screen of strains in broth medium containing FAC; parameters: key: Red, Green, Black or Purple mean strong colour; Red, Green, Black or Purple mean strong colour; Red, Green, Black or Purple mean strong colour; Red, Green, Black or Purple mean strong colour; +/− means less colour than strong; Tr means a trace of colour, less than +/−; — means no colour; conditions: 37° C. 18 hours
[5] = tested on: Salmonella typhimurium NCTC 74; experiment: multi-point inoculation onto Columbia agar plates; conditions: substrate 300 mg/L, FAC 500 mg/L, 18 h at 37° C. in air
Protocol: (§1) The specificity of action of both DHN-β-D-glucuronide (2) and of catechol-β-D-glucuronide (1), as well as their 6′-methyl esters (4 and 6), was first established using multi-point inoculation of 20 different microbial strains onto Columbia agar plates. The strains chosen represented species commonly encountered in diagnostic microbiology. The substrates were incorporated into the agar at a concentration of 300 mg/L with an iron salt, ferric ammonium citrate, (hereinafter known as FAC) at 500 mg/L. The plates were incubated for 18 h at 37° C. in air.

[6] = tested on: Serratia marcescens NCTC 10211; experiment: multi-point inoculation onto Columbia agar plates; conditions: substrate 300 mg/L, FAC 500 mg/L, 18 h at 37° C. in air
Protocol: as §1

[7] = tested on: Burkholderia cepacia NCTC 10931; experiment: multi-point inoculation onto Columbia agar plates; conditions: substrate 300 mg/L, FAC 500 mg/L, 18 h at 37° C. in air
Protocol: as §1

[8] = tested on: Listeria monocytogenes NCTC 11994; experiment: multi-point inoculation onto Columbia agar plates; conditions: substrate 300 mg/L, FAC 500 mg/L, 18 h at 37° C. in air
Protocol: as §1

[9] = tested on: Klebsiella pneumoniae NCTC 9528; experiment: multi-point inoculation onto Columbia agar plates; conditions: substrate 300 mg/L, FAC 500 mg/L, 18 h at 37° C. in air
Protocol: as §1

[10] = tested on: Yersinia enterocolitica NCTC 11176; experiment: multi-point inoculation onto Columbia agar plates; conditions: substrate 300 mg/L, FAC 500 mg/L, 18 h at 37° C. in air
Protocol: as §1

[11] = tested on: Providencia rettgeri NCTC 7475; experiment: multi-point inoculation onto Columbia agar plates; conditions: substrate 300 mg/L, FAC 500 mg/L, 18 h at 37° C. in air
Protocol: as §1

[12] = tested on: Candida albicans ATCC 90028; experiment: multi-point inoculation onto Columbia agar plates; conditions: substrate 300 mg/L, FAC 500 mg/L, 18 h at 37° C. in air
Protocol: as §1

[13] = tested on: Bacillus subtilis NCTC 9372; experiment: multi-point inoculation onto Columbia agar plates; conditions: substrate 300 mg/L, FAC 500 mg/L, 18 h at 37° C. in air
Protocol: as §1

[14] = tested on: Staphylococcus epidermidis NCTC 11047; experiment: multi-point inoculation onto Columbia agar plates; conditions: substrate 300 mg/L, FAC 500 mg/L, 18 h at 37° C. in air
Protocol: as §1

[15] = tested on: Staphylococcus aureus (MRSA) NCTC 11939; experiment: multi-point inoculation onto Columbia agar plates; conditions: substrate 300 mg/L, FAC 500 mg/L, 18 h at 37° C. in air
Protocol: as §1

[16] = tested on: Enterococcus faecalis NCTC 775; experiment: multi-point inoculation onto Columbia agar plates; conditions: substrate 300 mg/L, FAC 500 mg/L, 18 h at 37° C. in air
Protocol: as §1

E. cloacae = experiment: screen of strains in broth medium containing FAC; parameters: key: Red, Green, Black or Purple mean strong colour; Red, Green, Black or Purple mean strong colour; Red, Green, Black or Purple mean strong colour; Red, Green, Black or Purple mean strong colour; +/− means less colour than strong; Tr means a trace of colour, less than +/−; — means no colour
E. faecalis NCTC 775 [17] = experiment: screen of strains in broth medium containing FAC; parameters: key: Red, Green, Black or Purple mean strong colour; Red, Green, Black or Purple mean strong colour; Red, Green, Black or Purple mean strong colour; Red, Green, Black or Purple mean strong colour; +/− means less colour than strong; Tr means a trace of colour, less than +/−; — means no colour; conditions: 37° C. 18 hours
[18] = E. cloacae 260329R, 37° C. 18 hours
[19] = E. cloacae NCTC 11936, 37° C. 18 hours

O=C(O)[C@H]1O[C@@H](Oc2c[nH]c3ccc(Br)c(Cl)c23)[C@H](O)[C@@H](O)[C@@H]1O [X-β-D-glucuronide CHA salt, 5-bromo-4-chloro-3-indolyl β-D-glucuronide]
colour (E. faecium NCTC 7171 [1]): —
colour (E. faecalis NCTC 775 [2]): —

O=C(O)C1OC(Oc2cc3ccccc3cc2O)C(O)C(O)C1O [Compound 2b, DHN-β-D-Glucuronide CHA Salt]
colour of solutions in the presence of ONPG [3]: purple-brown solutions
colour (E. faecium NCTC 7171 [4]): —
colour [5]: −
colour [6]: −
colour [7]: −
colour [8]: −
colour [9]: −
colour [10]: −
colour [11]: −
colour [12]: −
colour [13]: −
colour [14]: −
colour [15]: −
colour [16]: −
colour (E. cloacae; [18]): —
colour (E. cloacae; [19]): —
colour (E. faecalis NCTC 775 [17]): —

O=C(O)C1OC(Oc2ccccc2O)C(O)C(O)C1O [Compound 1, Catechol β-D-Glucuronide CHA Salt]
colour of solutions in the presence of ONPG [3]: greyish-black solutions
colour (E. faecium NCTC 7171 [4]): —
colour [5]: −
colour [6]: −
colour [7]: −
colour [8]: −
colour [9]: −
colour [10]: −
colour [11]: −
colour [12]: −
colour [13]: −
colour [14]: −
colour [15]: −
colour [16]: −
colour (E. cloacae; [18]): —
colour (E. cloacae; [19]): —
colour (E. faecalis NCTC 775 [17]): —

O=C(O)[C@H]1O[C@@H](Oc2c[nH]c3cc(Cl)ccc23)[C@H](O)[C@@H](O)[C@@H]1O [Rose-β-D-glucuronide CHA salt, 6-chloro-3-indolyl β-D-glucuronide]
colour (E. faecium NCTC 7171 [1]): —
colour (E. faecalis NCTC 775 [2]): —
